Experimental data published in patent US7291612B2, “Immunomodulatory compounds” (Active Biotech A.B., priority 2002, dated 2007).

target: T1, CD80-CD28 interaction (Homo sapiens, UniProt P33681); assay: cell free Homogenous Time Resolved Fluorescence (HTRF) assay, inhibition of the CD80-CD28 interaction; assay type: binding; settings: 4 hours at room temperature, read-out: Activity (EC50 in summary form)
T1 construct: mouse Fab fragment (fusion partner)
T1 sequence (P33681 35-242 limits assumed): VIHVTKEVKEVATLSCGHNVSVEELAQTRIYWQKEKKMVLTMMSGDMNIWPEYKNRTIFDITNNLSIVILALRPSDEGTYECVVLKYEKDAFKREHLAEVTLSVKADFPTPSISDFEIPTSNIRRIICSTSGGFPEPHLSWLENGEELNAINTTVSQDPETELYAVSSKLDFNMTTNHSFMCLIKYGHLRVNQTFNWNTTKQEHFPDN
Method: The examples described above were tested in a cell free Homogenous Time Resolved Fluorescence (HTRF) assay to determine their activity as inhibitors of the CD80-CD28 interaction.
In the assay, europium and allophycocyanin (APC) are associated with CD28 and CD80 indirectly (through antibody linkers) to form a complex, which brings the europium and APC into close proximity to generate a signal. The complex comprises the following six proteins: fluorescent label 1, linker antibody 1, CD28 fusion protein, CD80 fusion protein, linker antibody 2, and fluorescent label 2. The table below describes these reagents in greater detail.
On formation of the complex, europium and APC are brought into proximity and a signal is generated.
Non-specific interaction was measured by substituting a mouse Fab fragment (C215) for the CD80 mouse Fab fragment fusion protein (1.9 μg/ml). The assay was carried out in black 384 well plates in a final volume of 30 μl. Assay buffer: 50 mM Tris-HCl, 150 mM NaCl pH7.8, containing 0.1% BSA (w/v) added just prior to use.
Compounds were added to the above reagents in a concentration series ranging between 100 μM-1.7 nM. The reaction was incubated for 4 hours at room temperature. Dual measurements were made using a Wallac Victor 1420 Multilabel Counter. First measurement: excitation 340 nm, emission 665 nm, delay 50 μs, window time 200 μs. second measurement: excitation 340 nm, emission 615 nm, delay 50 μs, window time 200 μs. Counts were automatically corrected for fluorescence crossover, quenching and background.

SMILES | EC50 [nM]
CCCC(C)C(=O)Nc1ccc(-n2nc3c4cccc(F)c4[nH]cc-3c2=O)cc1 (stereo not shown) [Example 2, 2-Methyl-pentanoic acid [4-(6-fluoro-3-oxo-3,5-dihydro-pyrazolo[4,3-c]quinolin-2-yl)-phenyl]-amide] | < 1000
CC(C)CC(=O)Nc1ccc(-n2nc3c4cccc(F)c4[nH]cc-3c2=O)cc1 [Example 4, N-[4-(6-Fluoro-3-oxo-3,5-dihydro-pyrazolo[4,3-c]quinolin-2-yl)-phenyl]-3-methyl-butyramide] | 1000 to 10000
CCCC(CCC)C(=O)Nc1ccc(-n2nc3c4cccc(F)c4[nH]cc-3c2=O)cc1 [Example 5, 2-Propyl-pentanoic acid [4-(6-fluoro-3-oxo-3,5-dihydro-pyrazolo[4,3-c]quinolin-2-yl)-phenyl]-amide] | > 10000
CC(C)(C)C(=O)Nc1ccc(-n2nc3c4cccc(F)c4[nH]cc-3c2=O)cc1 [Example 7, N-[4-(6-Fluoro-3-oxo-3,5-dihydro-pyrazolo[4,3-c]quinolin-2-yl)-phenyl]-2,2-dimethyl-propionamide] | 1000 to 10000
O=C(COCc1ccccc1)Nc1ccc(-n2nc3c4cccc(F)c4[nH]cc-3c2=O)cc1 [Example 8] | 1000 to 10000
O=C(CCl)Nc1ccc(-n2nc3c4cccc(F)c4[nH]cc-3c2=O)cc1 [Example 9] | 1000 to 10000
O=C(Nc1ccc(-n2nc3c4cccc(F)c4[nH]cc-3c2=O)cc1)c1ccco1 [Example 10] | > 10000
O=C(Nc1ccc(-n2nc3c4cccc(F)c4[nH]cc-3c2=O)cc1)c1ncoc1-c1ccccc1 [Example 15] | 1000 to 10000
CC(=O)Nc1ccc(-n2nc3c4cccc(F)c4[nH]cc-3c2=O)cc1 [Example 16] | 1000 to 10000
CCC(CC)C(=O)Nc1ccc(-n2nc3c4cccc(F)c4[nH]cc-3c2=O)cc1 [Example 18] | < 1000
O=C(CC1CCCC1)Nc1ccc(-n2nc3c4cccc(F)c4[nH]cc-3c2=O)cc1 [Example 19] | 1000 to 10000
CC(=O)N1CCC(C(=O)Nc2ccc(-n3nc4c5cccc(F)c5[nH]cc-4c3=O)cc2)CC1 [Example 20] | 1000 to 10000
O=C(Cc1c(Cl)cccc1Cl)Nc1ccc(-n2nc3c4cccc(F)c4[nH]cc-3c2=O)cc1 [Example 21] | 1000 to 10000
COC(=O)CCCCCCCCC(=O)Nc1ccc(-n2nc3c4cccc(F)c4[nH]cc-3c2=O)cc1 [Example 23] | 1000 to 10000
CC(C)C(=O)Nc1ccc(-n2nc3c4cccc(F)c4[nH]cc-3c2=O)cc1 [Example 24] | < 1000
O=C(Nc1ccc(-n2nc3c4cccc(F)c4[nH]cc-3c2=O)cc1)c1ccno1 [Example 28] | 1000 to 10000
C[N+](C)(C)CCCC(=O)Nc1ccc(-n2nc3c4cccc(F)c4[nH]cc-3c2=O)cc1 [Example 29] | < 1000

SMILES | EC50 [nM]
CN(C)CCCC(=O)Nc1ccc(-n2nc3c4cccc(F)c4[nH]cc-3c2=O)cc1 [Example 30] | < 1000
CN(CCCNCC(=O)Nc1ccc(-n2nc3c4cccc(F)c4[nH]cc-3c2=O)cc1)c1ccccc1 [Example 31] | > 10000
CN(C)c1ccc(CNCC(=O)Nc2ccc(-n3nc4c5cccc(F)c5[nH]cc-4c3=O)cc2)cc1 [Example 32] | > 10000
CN1C(C)(C)CC(NCC(=O)Nc2ccc(-n3nc4c5cccc(F)c5[nH]cc-4c3=O)cc2)CC1(C)C [Example 33] | < 1000
O=C(CNCCCN1CCCC1=O)Nc1ccc(-n2nc3c4cccc(F)c4[nH]cc-3c2=O)cc1 [Example 35] | < 1000
O=C(CNCCc1ccccn1)Nc1ccc(-n2nc3c4cccc(F)c4[nH]cc-3c2=O)cc1 [Example 36] | 1000 to 10000
O=C(CNC1CCCCNC1=O)Nc1ccc(-n2nc3c4cccc(F)c4[nH]cc-3c2=O)cc1 (stereo not shown) [Example 37] | 1000 to 10000
CN1CCCC1CCNCC(=O)Nc1ccc(-n2nc3c4cccc(F)c4[nH]cc-3c2=O)cc1 (stereo not shown) [Example 39] | < 1000
CC(C)N(CCNCC(=O)Nc1ccc(-n2nc3c4cccc(F)c4[nH]cc-3c2=O)cc1)C(C)C [Example 41] | 1000 to 10000
O=C(CN1CCCCC1)Nc1ccc(-n2nc3c4cccc(F)c4[nH]cc-3c2=O)cc1 [Example 42] | 1000 to 10000
CC(N)C(=O)Nc1ccc(-n2nc3c4ccccc4[nH]cc-3c2=O)cc1 (stereo not shown) [Example 43] | 1000 to 10000
CC(N)C(=O)Nc1ccc(-n2nc3c4cccc(F)c4[nH]cc-3c2=O)cc1 (stereo not shown) [Example 46] | < 1000
CCC(C)C(=O)Nc1ccc(-n2nc3c4ccccc4[nH]cc-3c2=O)cc1 (stereo not shown) [Example 47] | 1000 to 10000
O=C(CN1CCN(Cc2ccc(F)cc2)CC1)Nc1ccc(-n2nc3c4cccc(F)c4[nH]cc-3c2=O)cc1 [Example 48] | 1000 to 10000
CN(CC(=O)Nc1ccc(-n2nc3c4cccc(F)c4[nH]cc-3c2=O)cc1)Cc1ccccc1 [Example 49] | 1000 to 10000
COCCCNC(=O)c1cccc(-n2nc3c4cccc(F)c4[nH]cc-3c2=O)c1 [Example 50, 3-(6-Fluoro-3-oxo-3,5-dihydro-pyrazolo[4,3-c]quinolin-2-yl)-N-(3-methoxy-propyl)-benzamide] | 1000 to 10000

Further lines, results first:

EC50 [nM] | SMILES
< 1000 | CCC(C)C(=O)Nc1ccc(-n2nc3c4cccc(F)c4[nH]cc-3c2=O)cc1 (stereo not shown) [Example 1, N-[4-(6-Fluoro-3-oxo-3,5-dihydropyrazolo[4,3-c]quinolin-2-yl)-phenyl]-2-methyl-butyramide]
> 10000 | Cn1cccc1C(=O)Nc1ccc(-n2nc3c4cccc(F)c4[nH]cc-3c2=O)cc1 [Example 3, 1-Methyl-1H-pyrrole-2-carboxylic acid [4-(6-fluoro-3-oxo-3,5-dihydro-pyrazolo[4,3-c]quinolin-2-yl)-phenyl]-amide]
< 1000 | COC(=O)CCCCC(=O)Nc1ccc(-n2nc3c4cccc(F)c4[nH]cc-3c2=O)cc1 [Example 6, 5-[4-(6-Fluoro-3-oxo-3,5-dihydro-pyrazolo[4,3-c]quinolin-2-yl)phenylcarbamoyl]-pentanoic acid methyl ester]
> 10000 | O=C(Nc1ccc(-n2nc3c4cccc(F)c4[nH]cc-3c2=O)cc1)c1ccc(N2CCOCC2)nc1 [Example 11]
1000 to 10000 | COC(=O)C(=O)Nc1ccc(-n2nc3c4cccc(F)c4[nH]cc-3c2=O)cc1 [Example 12]
> 10000 | CCCc1c(C(=O)Nc2ccc(-n3nc4c5cccc(F)c5[nH]cc-4c3=O)cc2)cnn1-c1ccccc1 [Example 14]
> 10000 | CCCCC(CC)C(=O)Nc1ccc(-n2nc3c4cccc(F)c4[nH]cc-3c2=O)cc1 (stereo not shown) [Example 17]
< 1000 | CC(=O)OC(C)(C)C(=O)Nc1ccc(-n2nc3c4cccc(F)c4[nH]cc-3c2=O)cc1 [Example 22]
1000 to 10000 | COCCOCC(=O)Nc1ccc(-n2nc3c4cccc(F)c4[nH]cc-3c2=O)cc1 [Example 25]
1000 to 10000 | COCC(=O)Nc1ccc(-n2nc3c4cccc(F)c4[nH]cc-3c2=O)cc1 [Example 27]
< 1000 | O=C(CN1CCN(C2CCCCCC2)CC1)Nc1ccc(-n2nc3c4cccc(F)c4[nH]cc-3c2=O)cc1 [Example 34]
1000 to 10000 | COC(=O)CC[C@H](N)C(=O)Nc1ccc(-n2nc3c4cccc(F)c4[nH]cc-3c2=O)cc1 [Example 38]
1000 to 10000 | O=C(CNCCCn1ccnc1)Nc1ccc(-n2nc3c4cccc(F)c4[nH]cc-3c2=O)cc1 [Example 40]
> 10000 | CCCC(C)C(=O)Nc1ccc(-n2nc3c4ccccc4[nH]cc-3c2=O)cc1 (stereo not shown) [Example 44]
1000 to 10000 | CC(C)C(=O)Nc1ccc(-n2nc3c4ccccc4[nH]cc-3c2=O)cc1 [Example 45]

same assay, conditions: read-out: EC50

SMILES | EC50 [nM]
O=C(Nc1ccc(-n2nc3c4cccc(F)c4[nH]cc-3c2=O)cc1)c1ncoc1-c1ccccc1 [Example 15] | 8000
O=C(Cc1c(Cl)cccc1Cl)Nc1ccc(-n2nc3c4cccc(F)c4[nH]cc-3c2=O)cc1 [Example 21] | 1900
C[N+](C)(C)CCCC(=O)Nc1ccc(-n2nc3c4cccc(F)c4[nH]cc-3c2=O)cc1 [Example 29] | 950
O=C(CNCCCN1CCCC1=O)Nc1ccc(-n2nc3c4cccc(F)c4[nH]cc-3c2=O)cc1 [Example 35] | 148
